Data: US8476197B2, “Aminopropenoates as fungicides” (priority 2009, dated 2013)
Read-outs that look alike come from different tables or passages of the source. Marks after values point to notes of the source that are not given here.

Row | Structure (SMILES) | Log P (pH 2.7) | Log P (pH 2.3) | Log P (pH 7.5)
1 | C#CCNC(=O)C(C#N)=C(NC(C)c1ccccn1)c1cn(C)nc1C(F)F (racemic) [Compound 1407] | 1.89^[a] | – | –
2 | CCOC(=O)C(C#N)=C(NC(C)c1ccccn1)c1ccnc(Br)c1Br (racemic) [Compound 1409] | 3.11^[a] | – | –
3 | CCNC(=O)C(C#N)=C(NC(C)c1ccccn1)c1ccnc(Cl)c1Br (racemic) [Compound 1411] | 2.55^[a] | – | –
4 | CCOC(=O)C(C#N)=C(NC(C)c1cnccn1)c1cccnc1Cl (racemic) [Compound 1415] | 2.13^[a] | – | –
5 | CCOC(=O)C(C#N)=C(NC(C)C(C)OC)c1scnc1Cl (racemic) [Compound 1480] | 2.94^[a] | – | –
6 | CCOC(=O)C(C#N)=C(NC(C)C(C)CC)c1scnc1Cl (racemic) [Compound 1481] | 3.92^[a] | – | –
7 | CCOC(=O)C(C#N)=C(NC(C)c1nccs1)c1cnn(C)c1Cl (racemic) [Compound 1483] | 2.42^[a] | – | –
8 | CCOC(=O)C(C#N)=C(NC(C)c1ccccn1)c1cnn(C)c1Cl (racemic) [Compound 1484] | 2.35^[a] | – | –
9 | CCOC(=O)C(C#N)=C(NC(C)c1ccccn1)c1ccnc2ccccc12 (racemic) [Compound 1497] | 2.5^[a] | – | –
10 | CCOC(=O)C(C#N)=C(NC(C)C1CC1)c1ccnc2ccccc12 (racemic) [Compound 1500] | 3.02^[a] | – | –
11 | C=CCOc1ncccc1C(NC(C)c1nccs1)=C(C#N)C(=O)OCC (racemic) [Compound 1506] | – | 2.03^[c]; 2.03^[b] | 2.03^[c]; 2.03^[b]
12 | CCOC(=O)C(C#N)=C(NC(c1cncnc1C)C(C)C)c1cccnc1Cl (racemic) [Compound 1538] | 2.28^[a] | – | –
13 | CCOC(=O)C(C#N)=C(NC(C)c1nccs1)c1cccnc1Br (racemic) [Compound 1547] | – | – | 2.44
14 | CCOC(=O)C(C#N)=C(NC(C)c1nc2c(s1)CCCC2)c1cccnc1Cl (racemic) [Compound 1548] | 3.21^[a] | – | –
15 | CCOC(=O)C(C#N)=C(NC(c1ccccn1)C(F)(F)F)c1cccnc1Cl (racemic) [Compound 1549] | 3.17^[a] | – | –
16 | CCOC(=O)C(C#N)=C(NC(C)c1nc(C)sc1C)c1cccnc1Cl (racemic) [Compound 1552] | 2.84^[a] | – | –
17 | CCOC(=O)C(C#N)=C(NC(c1cncnc1C(F)(F)F)C(C)C)c1cccnc1Cl (racemic) [Compound 1557] | 3.55^[a] | – | –
18 | CCOC(=O)C(C#N)=C(NC(C)c1cc(Cl)ccc1Cl)c1cccnc1Cl (racemic) [Compound 1558] | 4.13^[a] | – | –
19 | CCOC(=O)C(C#N)=C(NC(C)C1CC1)c1cn(C)nc1C(Cl)Cl (racemic) [Compound 1560] | 3.23^[a] | – | –
20 | CCOC(=O)C(C#N)=C(NC(C)C1CCC1)c1cn(C)nc1C(Cl)Cl (racemic) [Compound 1561] | 3.67^[a] | – | –
21 | CC(NC(=C(C#N)C(=O)NCCF)c1cccnc1Cl)c1nccs1 (racemic) [Compound 1563] | 2^[a] | – | –
22 | CCOC(=O)C(C#N)=C(NC(C)c1ccccn1)c1cn(C)nc1C(Cl)Cl (racemic) [Compound 1565] | 2.7^[a] | – | –
23 | CCOC(=O)C(C#N)=C(NC(C)c1nc(C)cs1)c1sccc1Br (single isomer, unassigned) [Compound 167] | 3.44^[a] | – | –
24 | CCOC(=O)C(C#N)=C(NC(C)c1cccc2ccccc12)c1nc(Cl)ccc1Cl (stereo not drawn) [Compound 1] | 4.4^[a] | – | –
25 | CCOC(=O)C(C#N)=C(NC(C)c1cccc2ccccc12)c1ncc(Cl)cc1Cl (stereo not drawn) [Compound 2] | 4.65^[a] | – | –
26 | CCOC(=O)C(C#N)=C(NC(C)c1cccc2ccccc12)c1cnc(Cl)cc1Cl (stereo not drawn) [Compound 3] | 4.4^[a] | – | –
27 | CCOC(=O)C(C#N)=C(NC(C)c1nccs1)c1cccnc1Cl (stereo not drawn) [Compound 6] | 2.58 | – | –
28 | CCOCCOC(=O)C(C#N)=C(NC(C)c1nccs1)c1cccnc1Cl (stereo not drawn) [Compound 12] | – | – | 2.4
29 | COC(=O)C(C#N)=C(NCc1ncccn1)c1cccnc1Cl [Compound 13] | – | 1.57^[c]; 1.57^[b] | 1.57^[c]; 1.57^[b]
30 | COC(=O)C(C#N)=C(NCC1OCCO1)c1cccnc1Cl [Compound 14] | – | 1.79 | 1.77
